Assay results: patent US11666658B2, “Rifamycin analogs and antibody-drug conjugates thereof” (Regeneron Pharmaceuticals, Inc., priority 2018, dated 2023)
Values after ≈ are worked out from the molar mass of the structure shown. “Also recorded” adds a separate entry of the source.

Tests used:
Type in all cases: cell-based, Staphylococcus aureus
[1] = test system: S. aureus NRS384; assay: Broth minimum inhibitory concentration (MIC) assay 1, S. aureus growth inhibition; settings: S. aureus NRS384 in TSB, 24 h at 37° C., OD600 nm; for MIC: Staphylococcus aureus
Method: To test the potency of rifamycin analogs of the disclosure in vitro, a broth growth inhibition assay was developed. For the assay, S. aureus NRS384 was grown in Tryptic Soy Broth (TSB) overnight, then sub-cultured 1:50 in fresh TSB and grown for an additional two hours. The culture was then pelleted via centrifugation and washed twice in PBS. The culture was then diluted to 1×10^4 cfu/mL in TSB and 50 μL of the suspension was added per well to a 96 well microtiter dish in duplicate. A dilution series of the indicated antibiotic (an analog according to the disclosure or a previously known analog Rifampicin) was added 1:1 for a final starting concentration of 1×10^−5 M with 1:3 dilutions. The plates were incubated at 37° C. with shaking for 24 h and then the OD600 nm was read on a Spectramax i3 Minimax 300.
A plot of the S. aureus inhibition assay conducted with rifamycin analogs according to the disclosure is shown as FIG. 1.

[2] = test system: intracellular S. aureus NRS384 in THP-1 macrophages; assay: Intracellular killing assay 1 (rifamycin analogs, S. aureus in THP-1 macrophages); settings: for MIC: Staphylococcus aureus, NRS384, lowest concentration that resulted in intracellular S. aureus eradication
Method: (§1) THP-1 monocytic cell line was grown in media (RMPI+10% FBS+1% Penicillin/Streptomycin), then seeded at a density of 1e5 cells/well in a 96 well plate and differentiated into macrophages for three days prior to infection using 200 nM PMA. An overnight culture of S. aureus NRS384 was grown in RPMI, washed twice with PBS and resuspended at 1e7 cfu/mL in PBS. THP-1 were washed with warm media (RMPI without FBS) to remove the Penicillin/Streptomycin and then infected with the S. aureus suspension at a multiplicity of infection of 10:1 (S. aureus: macrophages). Plates were spun at 300×g for 5 minutes to synchronize adhesion of the bacteria, then incubated at 37° C. for 2 hours. Free-floating bacteria were removed by washing 2× with warm media and remaining extracellular S. aureus were killed by addition of media containing gentamicin (50 ug/mL). After 1 h, media was aspirated and the indicated compound was added to infected macrophages in media containing 50 µg/mL gentamicin to prevent extracellular growth of S. aureus. After 2 h, plates were washed 2× with warm RPMI without FBS, and 100 ul of THP-1 lysis buffer (0.1% Triton in PBS) was added to each well. S. aureus survival was enumerated by colony forming units through serial dilution and plating onto TSA.

[3] = test system: S. aureus NRS384; assay: Broth minimum inhibitory concentration (MIC) assay 2; settings: S. aureus NRS384 in TSB, 24 hours at 37° C., OD600, median of at least two independent experiments; for MIC: Staphylococcus aureus, read-out: S. aureus Broth MIC
Method: To test the potency of rifamycin analogs of the disclosure in vitro, a broth growth inhibition assay was developed. For the assay, S. aureus NRS384 was grown in Tryptic Soy Broth (TSB) overnight, then sub-cultured 1:50 in fresh TSB and grown for an additional two hours. The culture was then pelleted via centrifugation and washed twice in PBS. The culture was then diluted to 1×10^6 cfu/mL in TSB and 100 μL of the suspension was added per well to a 2 mL dilution plate in triplicate. […] The plates were sealed and incubated at 37° C. with shaking for 24 hours, then 150 μL of each sample was added to 96 well microtiter plates and the OD600 nm was read on a Spectramax i3 Minimax 300.
The broth MIC experiments were assessed in at least two independent experiments and the median value is captured below unless indicated otherwise.

[4] = test system: intracellular S. aureus NRS384 in THP-1 macrophages; assay: Intracellular killing assay 2 (rifamycin analogs, S. aureus in THP-1 macrophages); settings: lowest concentration giving intracellular S. aureus below limit of detection (50 cfu/mL) in THP-1 macrophages, median of at least two experiments; for MIC: Staphylococcus aureus, NRS384, 2 h, read-out: S. aureus Intracellular killing MIC
Method: as §1, with “[…] The compounds were” for “After 1 h, media was aspirated and the indicated compound was”, “added” for “added to infected macrophages”, “hours,” for “h,”
The intracellular MIC value indicated represents the median value of at least two independent experiments, unless indicated otherwise.

SMILES: COc1ccc2nc3c4c5c6c(C)c(O)c4c(=O)c(c-3oc2c1)NC(=O)/C(C)=C\C=C\[C@H](C)[C@H](O)[C@@H](C)[C@@H](O)[C@@H](C)[C@H](OC(C)=O)[C@H](C)[C@@H](OC)/C=C/O[C@@](C)(O6)C5=O [Analog 1a, Rifamycin 4-MeO-Phenol Analogs]
- MIC [1]: 0.014 µM (≈ 0.0114 µg/mL)
- intracellular S. aureus killing capacity compared to rifampicin (in words) [2]: increased intracellular S. aureus killing capacity compared to rifampicin
- MIC ([2]; 2 h with compound): 1 µM (≈ 0.815 µg/mL)

SMILES: CO[C@H]1/C=C/O[C@@]2(C)Oc3c(C)c(O)c4c(=O)c(c5oc6cc(OCc7ccccc7)ccc6nc-5c4c3C2=O)NC(=O)/C(C)=C\C=C\[C@H](C)[C@H](O)[C@@H](C)[C@@H](O)[C@@H](C)[C@H](OC(C)=O)[C@@H]1C [Analog 1b, Rifamycin 4-BnO-Phenol Analogs]
- MIC [1]: 0.12 µM (≈ 0.107 µg/mL)
- MIC ([2]; 2 h with compound): > 1 µM

SMILES: CO[C@H]1/C=C/O[C@@]2(C)Oc3c(C)c(O)c4c(=O)c(c5n(C)c6cc(O)ccc6nc-5c4c3C2=O)NC(=O)/C(C)=C\C=C\[C@H](C)[C@H](O)[C@@H](C)[C@@H](O)[C@@H](C)[C@H](OC(C)=O)[C@@H]1C [Analog 1d, Rifamycin 4-OH-Phenol N-Methyl analogs]
- MIC [1]: 0.37 µM (≈ 0.301 µg/mL)
- MIC ([2]; 2 h with compound): > 1 µM

SMILES: CO[C@H]1/C=C/O[C@@]2(C)Oc3c(C)c(O)c4c(=O)c(c5oc6cc(OC7CCNCC7)ccc6nc-5c4c3C2=O)NC(=O)/C(C)=C\C=C\[C@H](C)[C@H](O)[C@@H](C)[C@@H](O)[C@@H](C)[C@H](OC(C)=O)[C@@H]1C [Analog 14]
- MIC [1]: 0.041 µM (≈ 0.0362 µg/mL)
- intracellular S. aureus killing capacity compared to rifampicin (in words) [2]: increased intracellular S. aureus killing capacity compared to rifampicin
- MIC ([2]; 2 h with compound): 1 µM (≈ 0.884 µg/mL)

SMILES: CO[C@H]1/C=C/O[C@@]2(C)Oc3c(C)c(O)c4c(=O)c(c5oc6cc(OCCN(C)C)ccc6nc-5c4c3C2=O)NC(=O)/C(C)=C\C=C\[C@H](C)[C@H](O)[C@@H](C)[C@@H](O)[C@@H](C)[C@H](OC(C)=O)[C@@H]1C [Analog 16a]
- MIC [1]: 0.0015 µM (≈ 0.00131 µg/mL)
- intracellular S. aureus killing capacity compared to rifampicin (in words) [2]: increased intracellular S. aureus killing capacity compared to rifampicin; also recorded: highest activity
- MIC ([2]; 2 h with compound): 0.04 µM (≈ 0.0349 µg/mL)

SMILES: CNCCOc1ccc2nc3c4c5c6c(C)c(O)c4c(=O)c(c-3oc2c1)NC(=O)/C(C)=C\C=C\[C@H](C)[C@H](O)[C@@H](C)[C@@H](O)[C@@H](C)[C@H](OC(C)=O)[C@H](C)[C@@H](OC)/C=C/O[C@@](C)(O6)C5=O [Analog 16d]
- MIC [1]: 0.041 µM (≈ 0.0352 µg/mL)
- intracellular S. aureus killing capacity compared to rifampicin (in words) [2]: increased intracellular S. aureus killing capacity compared to rifampicin
- MIC ([2]; 2 h with compound): 1 µM (≈ 0.858 µg/mL)

SMILES: CO[C@H]1/C=C/O[C@@]2(C)Oc3c(C)c(O)c4c(=O)c(c5oc6cc(OCCN)ccc6nc-5c4c3C2=O)NC(=O)/C(C)=C\C=C\[C@H](C)[C@H](O)[C@@H](C)[C@@H](O)[C@@H](C)[C@H](OC(C)=O)[C@@H]1C [Analog 16e]
- MIC [1]: 0.0046 µM (≈ 0.00388 µg/mL)
- intracellular S. aureus killing capacity compared to rifampicin (in words) [2]: increased intracellular S. aureus killing capacity compared to rifampicin
- MIC ([2]; 2 h with compound): 1 µM (≈ 0.844 µg/mL)

SMILES: CO[C@H]1/C=C/O[C@@]2(C)Oc3c(C)c(O)c4c(=O)c(c5oc6cc(C#CCN(C)C)ccc6nc-5c4c3C2=O)NC(=O)/C(C)=C\C=C\[C@H](C)[C@H](O)[C@@H](C)[C@@H](O)[C@@H](C)[C@H](OC(C)=O)[C@@H]1C [Analog 72]
- MIC [3]: 0.0625 µM (≈ 0.0541 µg/mL)
- MIC [4]: > 1 µM

SMILES: CO[C@H]1/C=C/O[C@@]2(C)Oc3c(C)c(O)c4c(=O)c(c5oc6cc(CCCN(C)C)ccc6nc-5c4c3C2=O)NC(=O)/C(C)=C\C=C\[C@H](C)[C@H](O)[C@@H](C)[C@@H](O)[C@@H](C)[C@H](OC(C)=O)[C@@H]1C [Analog 75]
- MIC [3]: 0.29 µM (≈ 0.252 µg/mL)
- MIC [4]: > 1 µM

SMILES: CO[C@H]1/C=C/O[C@@]2(C)Oc3c(C)c(O)c4c(=O)c(c5oc6cccc(O)c6nc-5c4c3C2=O)NCC(=O)/C(C)=C\C=C\[C@H](C)[C@H](O)[C@@H](C)[C@@H](O)[C@@H](C)[C@H](OC(C)=O)[C@@H]1C [Analog P1]
- S. aureus Broth MIC [3]: 0.0625 µM
- S. aureus Intracellular killing MIC [4]: 0.2 µM

SMILES: CO[C@H]1/C=C/O[C@@]2(C)Oc3c(C)c(O)c4c(=O)c(c5oc6cc(F)ccc6nc-5c4c3C2=O)NCC(=O)/C(C)=C\C=C\[C@H](C)[C@H](O)[C@@H](C)[C@@H](O)[C@@H](C)[C@H](O)[C@@H]1C [Analog P2]
- S. aureus Broth MIC [3]: 0.0625 µM
- S. aureus Intracellular killing MIC [4]: >1 µM

SMILES: CO[C@H]1/C=C/O[C@@]2(C)Oc3c(C)c(O)c4c(O)c(c(/C=N/N5CCN(C)CC5)c(O)c4c3C2=O)NC(=O)/C(C)=C\C=C\[C@H](C)[C@H](O)[C@@H](C)[C@@H](O)[C@@H](C)[C@H](OC(C)=O)[C@@H]1C [Rifampicin, rifampicin, reference compound]
- S. aureus Broth MIC [1]: 0.0046 µM
- Intracellular killing MIC ([2]; lowest concentration that resulted in intracellular S. aureus eradication, 2 h with compound): >1.0E−06
- MIC [3]: 0.00391 µM (≈ 0.00322 µg/mL)
- MIC [4]: 1 µM (≈ 0.823 µg/mL)
